Tests used:
[1] = system: 3×Tg AD transgenic mice; test: Novel object recognition test; type: in vivo; conditions: 3×Tg AD mice, artemisinin 1 mg/kg i.p. every other day from 12 to 36 weeks of age, versus untreated 3×Tg AD mice; p<0.05
Method: In the present embodiment, 3×Tg AD transgenic mice were obtained from the Jackson Laboratory (004807), and wild-type C57BL/6 mice were purchased from the National Laboratory Animal Center. The body weights of the animals were measured every eight weeks from 12th to 36th week-old. The animals were i.p. administered with pure water or artemisinin (1 mg/kg) every other day from 12 weeks to 36 weeks of age; the WT-W group was water vehicle-treated wild-type mice; the AD-W group was water vehicle-treated 3×Tg AD transgenic mice; and AD-R group was artemisinin-treated 3×Tg AD transgenic mice. The animals were examined by using behavioral tasks, including Morris water maze test, spontaneous alternation behavior Y-maze test, and novel object recognition task test, when they were 36-week-old. The novel object recognition was conducted to examine whether artemisinin can restore recognition memory, which involves the frontal cortex, entorhinal cortex and hippocampus; it was used to evaluate the inborn tendency of the rodents to explore novel objects rather than familiar ones. During the first two days, mice were habituated to open field (50×40 cm, with 22 cm in height) for two sessions of 10 min each day in order to be familiar with the apparatus. […] The discrimination index was calculated as percentage ratio of TB/(TA+TB)×100. […]

[2] = system: stably transfected human FABP3-SH-SY5Y cells; test: Western blot of Aβ42 oligomerization in stably transfected human FABP3-SH-SY5Y cells; type: cell-based; conditions: artemisinin 4 μM pretreatment 4 hours, Aβ42 2.5 μM 24 hours
Method: (§1) Human neuroblastoma SH-SY5Y cell line was obtained from American Type Culture Collection (ATCC® CRL-2266™) and maintained in Dulbecco's Modified Eagle Medium with nutrient mixture F-12 (DMEM/F12; Invitrogen) media supplemented with 10% FBS, 100 U/mL penicillin and 100 μg/mL streptomycin at 37° C. in a 5% CO2 humidified incubator.
(§2) Human FAPB3 cDNA, which was reverse transcribed from the total RNA of SH-SY5Y cells, was amplified by polymerase chain reaction (PCR) using primers (5′-[…] and 5′-TGCCTCTrTCTCATAAGTG) and then cloned into pcDNA™3.1D/V5-His-TOPO vector (Invitrogen). SH-SY5Y cells stably expressing human FABP3 were obtained using lipofectamine transfection with selection via cultivation in DMEM/F12 medium (Gibco) containing 500 μg/mL G418 (Sigma-Aldrich).
Then, the stably transfected human FABP3-SH-SY5Y cells were washed with PBS and lysed with radioimmunoprecipitation (RIPA) buffer supplemented with cOmplete™ Protease Inhibitor Cocktail (Sigma-Aldrich). The samples with equal amounts of total protein (50 μg) were fractionated by SDS-PAGE and electrotransferred to a polyvinylidene difluoride (PVDF) membrane (Millipore). The membrane was blocked for one hour at room temperature with 10% nonfat milk in TBST buffer (20 mM Tris-HCl, 150 mM NaCl, and 0.1% Tween 20); thereafter, the membrane was incubated with 6E10 (BioLegend), FABP3 (Santa Cruz) or GAPDH (Santa Cruz) antibodies. […]

[3] = target: T1, recombinant human FABP3 protein (FABP3-induced Aβ42 oligomerization) (Homo sapiens, UniProt P05413); test: Western blot of Aβ42 oligomerization with recombinant FABP3 pre-incubated with artemisinin; type: biochemical; conditions: artemisinin 4 μM preincubated with FABP3 2.5 μM for four hours, then Aβ42 oligomers 2.5 μM 24 hours; 6E10 antibody, ImageJ; p<0.05
T1 construct: purchased Cayman Chemical
T1 sequence (P05413 whole entry): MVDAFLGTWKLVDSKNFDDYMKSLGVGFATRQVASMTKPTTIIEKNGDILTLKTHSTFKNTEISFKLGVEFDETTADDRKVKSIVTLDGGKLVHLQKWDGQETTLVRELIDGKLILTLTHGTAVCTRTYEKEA
Method: Synthetic Aβ42 peptides (AnaSpec) were solubilized in hexafluoroisopropanol (HFIP), and then HFIP was allowed to be evaporated completely under nitrogen flow. Aβ42 peptides were resuspended using phosphate buffered saline (PBS) to […], and were incubated to assemble oligomers at room temperature for 24 hours prior to use. The oligomeric status of AP was verified by sodium dodecyl sulfate polyacrylamide gel electrophoresis (SDS-PAGE).
Afterwards, the oligomerization of Aβ42 was analyzed using western blot analysis and detected with 6E10 antibody.

[4] = system: SH-SY5Y cells transfected with human FABP3; test: MTT cell viability assay, Aβ42 cytotoxicity in FABP3-transfected SH-SY5Y cells; type: cell-based; conditions: pcDNA3/FABP3 SH-SY5Y cells, artemisinin (0-4 μM) pretreatment four hours, Aβ42 2.5 μM 24 hours; increased from 65% without artemisinin; p<0.01
Method: as §1
as §2, with “5′-TGCCTCTTCTCATAAGTG)” for “5′-TGCCTCTrTCTCATAAGTG)”, “µg/mL” for “μg/mL”
Afterwards, purple formazan crystals formed by reduction of MTT in the mitochondria of living cells were dissolved in 100 μl solution containing 10% SDS and 0.01N HCl. The absorbance was measured at 570 nm with an ELISA reader (pQuant; BioTek Instruments, Inc).

[5] = system: 3×Tg AD transgenic mice; test: Spontaneous alternation behavior Y-maze test; type: in vivo; conditions: 3×Tg AD mice, artemisinin 1 mg/kg i.p. every other day from 12 to 36 weeks of age, tested at 36 weeks
Method: In the present embodiment, 3×Tg AD transgenic mice were obtained from the Jackson Laboratory (004807), and wild-type C57BL/6 mice were purchased from the National Laboratory Animal Center. The body weights of the animals were measured every eight weeks from 12th to 36th week-old. The animals were i.p. administered with pure water or artemisinin (1 mg/kg) every other day from 12 weeks to 36 weeks of age; the WT-W group was water vehicle-treated wild-type mice; the AD-W group was water vehicle-treated 3×Tg AD transgenic mice; and AD-R group was artemisinin-treated 3×Tg AD transgenic mice. The animals were examined by using behavioral tasks, including Morris water maze test, spontaneous alternation behavior Y-maze test, and novel object recognition task test, when they were 36-week-old. The spontaneous alternation behavior Y-maze test was used to estimate short-term memory. The Y-maze was a three-arm maze (30 cm long and 5 cm wide with 12 cm in height) with equal angles and the arms were labeled A, B, and C. The 36-week-old mice (n=6 per group) administered with aforementioned treatment were initially placed within one arm, and the number of arm entries and the number of alternations were recorded for eight min period for each mouse. […] The percentage of alternation was calculated by the following equation: Alternation (%)=[(Number of alternation)/(Total arm entries−2)]×100.

[6] = system: 3×Tg AD transgenic mice; test: Morris water maze test; type: in vivo; conditions: 3×Tg AD mice, artemisinin 1 mg/kg i.p. every other day from 12 to 36 weeks of age, tested at 36 weeks; p<0.05
Method: In the present embodiment, 3×Tg AD transgenic mice were obtained from the Jackson Laboratory (004807), and wild-type C57BL/6 mice were purchased from the National Laboratory Animal Center. The body weights of the animals were measured every eight weeks from 12th to 36th week-old. The animals were i.p. administered with pure water or artemisinin (1 mg/kg) every other day from 12 weeks to 36 weeks of age; the WT-W group was water vehicle-treated wild-type mice; the AD-W group was water vehicle-treated 3×Tg AD transgenic mice; and AD-R group was artemisinin-treated 3×Tg AD transgenic mice. The animals were examined by using behavioral tasks, including Morris water maze test, spontaneous alternation behavior Y-maze test, and novel object recognition task test, when they were 36-week-old. To evaluate whether artemisinin ameliorates the spatial learning and memory deficits, the Morris water maze test was performed. […] After the last trail, mice were subjected to the probe test that the platform was removed, and the time spent in quadrants was recorded by a computer-controlled system.

decrease of Aβ42 tetramer induced by FABP3 [3]: 156% | decrease of Aβ42 trimer induced by FABP3 [3]: 144%
SMILES: C[C@@H]1CC[C@H]2[C@@H](C)C(=O)O[C@@H]3O[C@@]4(C)CC[C@@H]1[C@]32OO4 [artemisinin]
increment in the discrimination index [1]: 56% | decrease of Aβ42 tetramer induced by FABP3 overexpression [2]: 87% | decrease of Aβ42 trimer induced by FABP3 overexpression [2]: 78% | cell viability [4]: 85% | spatial working memory (spontaneous alternation rate) [5]: restored spatial working memory to the extent similar as that of the wild-type group | time in finding the hidden platform [6]: significantly less time
